The nature of data set [1]: PHA-001 study: PK interaction study with methotrexate in RA patients. The settings on record: single dose of CDP-870 400 mg SC; oral MTX 5-17.5 mg/week.
For another data set, the target named is T1, TNFβ (lymphotoxin) (Homo sapiens, UniProt P01374).
T1 sequence (P01374 35-205): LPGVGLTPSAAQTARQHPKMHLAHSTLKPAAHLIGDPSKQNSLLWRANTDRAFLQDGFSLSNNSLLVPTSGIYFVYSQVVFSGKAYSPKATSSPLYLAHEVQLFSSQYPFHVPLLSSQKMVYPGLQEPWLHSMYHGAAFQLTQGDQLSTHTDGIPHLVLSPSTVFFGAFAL
Description: Neutralization of TNFβ (lymphotoxin).

A short description of data set [2]: Half-life of the PEGylated Fab′ fragment. The data set is classed as in vivo. The note with it: PEG chains linked by a single maleimide group.
Data set [3] deals with patients with active RA. Description: Celltech-002 study: single IV infusion, ACR responder rates. The data set is classed as in vivo, human. The settings on record: for ACR20 responder rate / ACR50 responder rate: week 8. The method, then:
DMARD therapy was discontinued one month prior to study start; concomitant nonsteroidal anti-inflammatory drug (NSAID) and corticosteroid use was allowed provided the doses had been stabilized prior to entry into the study. […] Patients were assessed over an 8-week period.
Patients were assessed for an additional 8-week period.
(§1) The overall effect of CDP870 in reducing the signs and symptoms of RA was summarized using the following global index: • American College of Rheumatology (ACR) Core Set of Disease Activity Measures for Rheumatoid Arthritis Clinical Trials. A patient was considered an ACR 20/50/70 responder if 20/50/70% or greater improvement in number of swollen joints and tender joints and a 20/50/70% or greater improvement in three of the five remaining ACR core set measures (Patient's Assessment of Pain by VAS, Patient's Global Assessment of Disease Activity, Physician's Global Assessment of Disease Activity, Patient's Assessment of Physical Function by mHAQ, acute phase reactant value) was observed; and […]

The subject of data set [4] is patients with active RA. Description: Celltech-004 study: SC every 4 weeks, ACR responder rates. The data set is classed as in vivo, human. The note with it: for ACR-20 responder rate / ACR-50 responder rate / ACR-70 responder rate: week 12. The method, then:
Again, DMARD therapy was discontinued one month prior to study start; concomitant NSAID and corticosteroid use was allowed provided the doses had been stabilized prior to entry into the study.
The protocol was subsequently amended based on the results of the double-blind portion of Panel 1, to increase the dose to 400 mg SC every 4 weeks for an additional 108 weeks.
as §1

For data set [5] the following is noted: human, in vivo.

One may read the t½ as how long it takes for the measured level to halve. Read a low t½ as fast loss.

Marks after values point to notes of the source that are not given here.

Take `CN(Cc1cnc2nc(N)nc(N)c2n1)c1ccc(C(=O)N[C@@H](CCC(=O)O)C(=O)O)cc1` [MTX, methotrexate]: in data set [1], the “mean dose-adjusted MTX plasma concentrations, MTX alone versus coadministration with CDP-870” value is given as “not significantly different”.

On to “CDP-870: PEGylated anti-TNFα Fab′ fragment derived from antibody hTNF40, linked via a cysteine to a lysyl-maleimide linker bearing two methoxy PEG residues”, for which the “neutralization of TNFβ (lymphotoxin)” value with TNFβ (lymphotoxin) is “does not neutralize”. Further, in data set [2], the half-life result is given as “about 11 days”. For the same compound, the results for the ACR20 responder rate with patients with active RA [3] (1 mg/kg single IV), with patients with active RA [3] (5 mg/kg single IV) and in the data set on patients with active RA [3] (20 mg/kg single IV) were 25 % of Patients, 75 % of Patients and 75 % of Patients, respectively. In addition, the results for the ACR50 responder rate with patients with active RA [3] (1 mg/kg single IV), with patients with active RA [3] (5 mg/kg single IV) and in the data set with patients with active RA [3] (20 mg/kg single IV) were 13 % of Patients, 13 % of Patients and 50 % of Patients, respectively. For the same compound, the “efficacy in reducing the signs and symptoms of RA” value with patients with active RA [3] (single IV dose of 1, 5 or 20 mg/kg, over 8 weeks) is “efficacious”. The ACR-20 responder rate with patients with active RA [4] (50 mg SC every 4 weeks) is reported as 21 % of Patients; with patients with active RA [4] (100 mg SC every 4 weeks), 20 % of Patients; in the data set on patients with active RA [4] (200 mg SC every 4 weeks) it was 34 % of Patients; in the data set on patients with active RA [4] (400 mg SC every 4 weeks), 60* % of Patients; with patients with active RA [4] (600 mg SC every 4 weeks), 64* % of Patients; in the data set with patients with active RA [4] (800 mg SC every 4 weeks), 79* % of Patients. Further, the ACR-50 responder rate in the data set on patients with active RA [4] (50 mg SC every 4 weeks) is 8 % of Patients; in the data set with patients with active RA [4] (100 mg SC every 4 weeks), 5 % of Patients; in the data set on patients with active RA [4] (200 mg SC every 4 weeks) it was 17* % of Patients; with patients with active RA [4] (400 mg SC every 4 weeks) it was 40* % of Patients; in the data set on patients with active RA [4] (600 mg SC every 4 weeks), 33* % of Patients; with patients with active RA [4] (800 mg SC every 4 weeks), 47* % of Patients. Besides, the ACR-70 responder rate with patients with active RA [4] (50 mg SC every 4 weeks) is listed as 5 % of Patients; in the data set with patients with active RA [4] (100 mg SC every 4 weeks), 3 % of Patients; in the data set on patients with active RA [4] (200 mg SC every 4 weeks), 7 % of Patients; with patients with active RA [4] (400 mg SC every 4 weeks) it was 29* % of Patients; in the data set with patients with active RA [4] (600 mg SC every 4 weeks) it was 21* % of Patients; with patients with active RA [4] (800 mg SC every 4 weeks), 21* % of Patients. Besides, the “efficacy in treating the signs and symptoms of RA” value in the data set with patients with active RA [4] (doses ≧400 mg SC every 4 weeks) was “efficacious”. The “mean plasma concentration at 55 days postdose” value in data set [5] is 2740 ng/mL. Further, the “CL/F (plasma clearance)” value in data set [5] (sc) came to 0.021 L/h. Further, the t½ in data set [5] (sc) came to 10.738 days. In data set [5] (sc, 400 mg), the “mean t½” value was 10.7 days. The “overall plasma exposure (AUC) over the 55-day monitoring period” value in data set [5] (sc, 400 mg) is given as “approximately 22000 hr*μg/mL”.

The record behind these values is patent publication US20050042219A1, “Engineered Fab' fragment anti-tumor necrosis factor alpha in combination with disease modifying anti-rheumatic drugs” (priority 2002, published 2005).
